Data on two molecules can be found in paper PMC12423301, “Astrocytic monoamine oxidase B (MAOB)–gamma-aminobutyric acid (GABA) axis as a molecular brake on repair following spinal cord injury” (Signal Transduction and Targeted Therapy, 2025).

For data set [1], the system named is primary cultured spinal cord astrocytes. Kind of data set: BDNF expression in cultured astrocytes (qPCR, Western blot). The data set is classed as cell-based, mouse.
Data set [2] concerns APP/PS1 transgenic mice. Kind of data set: Cognitive tests in APP/PS1 transgenic mice. The data set is classed as in vivo, mouse. The following applies: 4-week repeated dosing test.
For data set [3] the following is noted: similar drugs; ref ZELAPAR®, XADAGO®; cited from earlier work.
Data set [4] concerns APP/PS1 transgenic mice. The experiment in a line: Tonic GABA current, neuronal firing and DAO compensation in APP/PS1 mice. The following applies: 4-week repeated dosing test. The data set is classed as in vivo, mouse.

Consider `NCCCC(=O)O` [GABA, γ-aminobutyric acid], for which the “mRNA expression level of BDNF” value in data set [1] (GABA 100 μM, 24 h) is recorded as “significantly downregulated”. For the same molecule, the “proBDNF expression (Western blotting)” value in data set [1] (GABA-treated) was “reduction”.

As for `C#CCN(C)[C@H](C)Cc1ccccc1` [selegiline, reference compound], the cognitive function entry with APP/PS1 transgenic mice [2] was “cognitive function decline”. The Tmax in data set [3] is 45 min. Also, the figures for the neuronal firing entry in the data set on APP/PS1 transgenic mice [4] (2nd week) and in the data set on APP/PS1 transgenic mice [4] (4th week) were “started to decrease” and “completely lost”, respectively.
